Laboratory results published in US9469650B2, “Melampomagnolide B derivatives” (BOARD OF TRUSTEES OF THE UNIVERSITY OF ARKANSAS, priority 2013, dated 2016).
Read-outs that look alike come from different tables or passages of the source.

Key:
[1] = tested on: MCF7; assay: panel of 60 human tumor cell lines, growth inhibition (Breast Cancer); details: Homo sapiens; for CC50: MCF7, read-out: LC50; for IC (TGI): MCF7, read-out: TGI
[2] = tested on: SK-MEL-2; assay: panel of 60 human tumor cell lines, growth inhibition (Melanoma); details: Homo sapiens; for GI50: SK-MEL-2; for CC50: SK-MEL-2, read-out: LC50; for IC (TGI): SK-MEL-2, read-out: TGI
[3] = tested on: NCI-H460; assay: panel of 60 human tumor cell lines, growth inhibition (Non-Small Cell Lung Cancer); details: Homo sapiens; for GI50: NCI-H460; for CC50: NCI-H460, read-out: LC50
[4] = tested on: CCRF-CEM; assay: panel of 60 human tumor cell lines, growth inhibition (Leukemia); details: Homo sapiens; for CC50: read-out: LC50; for IC (TGI): read-out: TGI
[5] = tested on: HOP-92; assay: panel of 60 human tumor cell lines, growth inhibition (Non-Small Cell Lung Cancer); details: Homo sapiens; for CC50: HOP-92, read-out: LC50; for IC (TGI): HOP-92, read-out: TGI
[6] = tested on: RXF 393; assay: panel of 60 human tumor cell lines, growth inhibition (Renal Cancer); details: Homo sapiens; for CC50: RXF 393, read-out: LC50; for IC (TGI): RXF 393, read-out: TGI
[7] = tested on: SK-MEL-5; assay: panel of 60 human tumor cell lines, growth inhibition (Melanoma); details: Homo sapiens; for GI50: SK-MEL-5; for CC50: SK-MEL-5, read-out: LC50; for IC (TGI): SK-MEL-5, read-out: TGI
[8] = tested on: LOX IMVI; assay: as above; details: Homo sapiens; for CC50: read-out: LC50; for IC (TGI): read-out: TGI
[9] = tested on: NCI-H226; assay: panel of 60 human tumor cell lines, growth inhibition (Non-Small Cell Lung Cancer); details: Homo sapiens; for GI50: NCI-H226; for CC50: NCI-H226, read-out: LC50; for IC (TGI): NCI-H226, read-out: TGI
[10] = tested on: MDA-MB-231/ATCC; assay: panel of 60 human tumor cell lines, growth inhibition (Breast Cancer); details: Homo sapiens; for GI50: MDA-MB-231; for CC50: MDA-MB-231, read-out: LC50; for IC (TGI): MDA-MB-231, read-out: TGI
[11] = tested on: CAKI-1; assay: panel of 60 human tumor cell lines, growth inhibition (Renal Cancer); details: Homo sapiens; for GI50: CAKI-1; for CC50: CAKI-1, read-out: LC50; for IC (TGI): CAKI-1, read-out: TGI
[12] = tested on: HCC-2998; assay: panel of 60 human tumor cell lines, growth inhibition (Colon Cancer); details: Homo sapiens; for GI50: HCC 2998; for CC50: HCC 2998, read-out: LC50; for IC (TGI): HCC 2998, read-out: TGI
[13] = tested on: HL-60(TB)
[14] = tested on: SN12C; assay: panel of 60 human tumor cell lines, growth inhibition (Renal Cancer); details: Homo sapiens; for CC50: read-out: LC50; for IC (TGI): read-out: TGI
[15] = tested on: HOP-62; assay: panel of 60 human tumor cell lines, growth inhibition (Non-Small Cell Lung Cancer); details: Homo sapiens; for GI50: HOP-62; for CC50: HOP-62, read-out: LC50; for IC (TGI): HOP-62, read-out: TGI
[16] = tested on: HCT-15; assay: panel of 60 human tumor cell lines, growth inhibition (Colon Cancer); details: Homo sapiens; for GI50: HCT-15; for CC50: HCT-15, read-out: LC50; for IC (TGI): HCT-15, read-out: TGI
[17] = tested on: DU-145; assay: panel of 60 human tumor cell lines, growth inhibition (Prostate Cancer); details: Homo sapiens; for GI50: DU-145; for CC50: DU-145, read-out: LC50; for IC (TGI): DU-145, read-out: TGI
[18] = tested on: SK-OV-3; assay: panel of 60 human tumor cell lines, growth inhibition (Ovarian Cancer); details: Homo sapiens; for GI50: SK-OV-3; for CC50: SK-OV-3, read-out: LC50; for IC (TGI): SK-OV-3, read-out: TGI
[19] = tested on: MOLT-4; assay: panel of 60 human tumor cell lines, growth inhibition (Leukemia); details: Homo sapiens; for GI50: MOLT-4; for CC50: MOLT-4, read-out: LC50; for IC (TGI): MOLT-4, read-out: TGI

Work on `C=C1C(=O)O[C@H]2[C@H]1CC/C(COC(=O)NCCN1CCCC1)=C\CC[C@@]1(C)O[C@@H]21` [JVM 59, ((1aR,7aS,10aS,10bS,E)-1a-methyl-8-methylene-9-oxo-1a,2,3,6,7,7a,8,9,10a,10b-decahydrooxireno[2′,3′:9,10]cyclodeca[1,2-b]furan-5-yl)methyl-(2-(pyrrolidin-1-yl)ethyl)carbamate] yielded a GI50 ([1]; MCF7, MCF7, five dose) of 3.91 µM, a GI50 ([1]; MCF7, MCF7, 5-dose assay) of 3.91 µM and a CC50 [1] of 63.7 µM. It also gave an IC (TGI) [1] of 17.1 µM, a GI50 [2] of 14 µM and a CC50 [2] of 62.4 µM. It also gave an IC (TGI) [2] of 29.5 µM, a GI50 [3] of 22.3 µM and a CC50 [3] greater than 100 µM. For the same molecule, the IC (TGI) ([3]; NCI-H460, read-out: TGI) was 51.4 µM, the GI50 ([4]; 5-dose assay) was 2.49 µM and the GI50 ([4]; five dose) was 2.49 µM. The CC50 [4] was 64.3 µM, the IC (TGI) [4] was 9.12 µM and the GI50 ([5]; HOP-92, HOP-92, five dose) was 2.25 µM. For the same molecule, the GI50 ([5]; HOP-92, HOP-92, 5-dose assay) was 2.25 µM, the CC50 [5] was 32.3 µM and the IC (TGI) [5] was 7.86 µM. The GI50 ([6]; RXF 393, RXF 393, five dose) was 4.08 µM, the GI50 ([6]; RXF 393, RXF 393, 5-dose assay) was 4.08 µM and the CC50 [6] was 47.9 µM. It also gave an IC (TGI) [6] of 16.8 µM, a GI50 [7] of 15.5 µM and a CC50 [7] of 55.1 µM. It also gave an IC (TGI) [7] of 29.2 µM, a GI50 ([8]; 5-dose assay) of 7.88 µM and a GI50 ([8]; five dose) of 7.88 µM. The CC50 [8] was 60.6 µM, the IC (TGI) [8] was 23.4 µM and the GI50 [9] was 35.3 µM. For the same molecule, the CC50 [9] was greater than 100 µM, the IC (TGI) [9] was greater than 100 µM and the GI50 [10] was 15.2 µM. The CC50 [10] was 61.6 µM, the IC (TGI) [10] was 30.6 µM and the GI50 [11] was 6.86 µM. It also gave a CC50 [11] of 51.8 µM, an IC (TGI) [11] of 21.2 µM and a GI50 [12] of 19.2 µM. The CC50 [12] was 67.9 µM, the IC (TGI) [12] was 36.1 µM and the “Percent Growth” value ([13]; Log10 Concentration −4.0) was −63%. The “Percent Growth” value ([13]; Log10 Concentration −5.0) was 22%, the “Percent Growth” value ([13]; Log10 Concentration −6.0) was 95% and the “Percent Growth” value ([13]; Log10 Concentration −7.0) was 96%. The “Percent Growth” value ([13]; Log10 Concentration −8.0) was 88%, the GI50 [14] was 17.7 µM and the CC50 [14] was 85.5 µM. For the same molecule, the IC (TGI) [14] was 39 µM, the GI50 [15] was 18 µM and the CC50 [15] was 62.3 µM. It also gave an IC (TGI) [15] of 33.5 µM, a GI50 [16] of 13.5 µM and a CC50 [16] of 91.2 µM. The IC (TGI) [16] was 35.1 µM, the GI50 [17] was 7.42 µM and the CC50 [17] was 46.3 µM. For the same molecule, the IC (TGI) [17] was 20.2 µM, the GI50 [18] was 29.4 µM and the CC50 [18] was greater than 100 µM. The IC (TGI) [18] was greater than 100 µM, the GI50 [19] was 3.48 µM and the CC50 [19] was 89.7 µM. The IC (TGI) [19] was 17.5 µM.
Molecule `C=C1C(=O)O[C@H]2[C@H]1CC/C(COC(=O)OC)=C\CC[C@@]1(C)O[C@@H]21` [JVM 2-40] has a GI50 ([1]; MCF7, MCF7, NCI five dose) of 2.28 µM, a CC50 [1] of 49.8 µM and an IC (TGI) [1] of 12.2 µM. The GI50 [2] was 10.6 µM, the CC50 [2] was 59.5 µM and the IC (TGI) [2] was 25.1 µM. It also gave a GI50 [3] of 16.7 µM, a CC50 [3] of 89.7 µM and a GI50 ([4]; NCI five dose) of 1.49 µM. It also gave a CC50 [4] of 98 µM, an IC (TGI) [4] of 6.04 µM and a GI50 ([5]; HOP-92, HOP-92, NCI five dose) of 2.33 µM. For the same molecule, the CC50 [5] was 30.7 µM, the IC (TGI) [5] was 7.99 µM and the GI50 ([6]; RXF 393, RXF 393, NCI five dose) was 1.68 µM. The CC50 [6] was 31.7 µM, the IC (TGI) [6] was 6.85 µM and the GI50 [7] was 7.58 µM. For the same molecule, the CC50 [7] was 50.6 µM, the IC (TGI) [7] was 21.5 µM and the GI50 ([8]; NCI five dose) was 3.4 µM. For the same molecule, the CC50 [8] was 43.3 µM, the IC (TGI) [8] was 13.1 µM and the GI50 [9] was 7.07 µM. The CC50 [9] was 87.7 µM, the IC (TGI) [9] was 27.4 µM and the GI50 [10] was 3.54 µM. It also gave a CC50 [10] of 46.7 µM, an IC (TGI) [10] of 16.6 µM and a GI50 [11] of 2.79 µM. It also gave a CC50 [11] of 38.8 µM, an IC (TGI) [11] of 15 µM and a GI50 [12] of 13.8 µM. The CC50 [12] was 56.8 µM, the IC (TGI) [12] was 28 µM and the “Percent Growth” value ([13]; Log10 Concentration −4.0) was −55%. For the same molecule, the “Percent Growth” value ([13]; Log10 Concentration −5.0) was −12%, the “Percent Growth” value ([13]; Log10 Concentration −6.0) was 68% and the “Percent Growth” value ([13]; Log10 Concentration −7.0) was 91%. The “Percent Growth” value ([13]; Log10 Concentration −8.0) was 97%, the GI50 [14] was 6.31 µM and the CC50 [14] was 64.4 µM. For the same molecule, the IC (TGI) [14] was 22.6 µM, the GI50 [15] was 14.9 µM and the CC50 [15] was 62.2 µM. It also gave an IC (TGI) [15] of 30.4 µM, a GI50 [16] of 1.96 µM and a CC50 [16] of 28.9 µM. For the same molecule, the IC (TGI) [16] was 6.78 µM, the GI50 [17] was 3.35 µM and the CC50 [17] was 37.7 µM. The IC (TGI) [17] was 14 µM, the GI50 [18] was 22.7 µM and the CC50 [18] was greater than 100 µM. It also gave an IC (TGI) [18] of 59.7 µM, a GI50 [19] of 4.05 µM and a CC50 [19] greater than 100 µM. The IC (TGI) [19] was 21.7 µM.
